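Dose response: 5 concentrations. Exposure: 48 h. Format: 96-well plates. Endpoint: linear interpolation; highest concentration if not reached. The concentration for 50% growth inhibition is given as GI50.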 Active and inactive are the calls of the source. Rule as the data show it: active = GI50 up to about 1.1 µM and inactive = higher.
Tests used:
Experiment in all cases: NCI tumour cell line growth inhibition, 48 h
HT-29 = tested on: HT-29
RXF 393 = tested on: RXF 393
T47D = tested on: T47D
SF-539 = tested on: SF-539
SF-268 = tested on: SF-268
786-0 = tested on: 786-0
PC-3 = tested on: PC-3
KM12 = tested on: KM12
HCT-15 = tested on: HCT-15
BT-549 = tested on: BT-549
NCI-H460 = tested on: NCI-H460
SNB-19 = tested on: SNB-19
ACHN = tested on: ACHN
A498 = tested on: A498
OVCAR-5 = tested on: OVCAR-5
SK-MEL-28 = tested on: SK-MEL-28
COLO 205 = tested on: COLO 205
SK-OV-3 = tested on: SK-OV-3
A549 = tested on: A549
HCT-116 = tested on: HCT-116
MDA-MB-435 = tested on: MDA-MB-435
SNB-75 = tested on: SNB-75
UO-31 = tested on: UO-31
DU-145 = tested on: DU-145
MDA-N = tested on: MDA-N
UACC-62 = tested on: UACC-62
Hs-578T = tested on: Hs-578T
SK-MEL-2 = tested on: SK-MEL-2
M14 = tested on: M14
OVCAR-3 = tested on: OVCAR-3
OVCAR-8 = tested on: OVCAR-8
NCI/ADR-RES = tested on: NCI/ADR-RES
CAKI-1 = tested on: CAKI-1
MCF7 = tested on: MCF7
SN12C = tested on: SN12C
K562 = tested on: K562
MOLT-4 = tested on: MOLT-4
HCC 2998 = tested on: HCC 2998
CCRF-CEM = tested on: CCRF-CEM
RPMI-8226 = tested on: RPMI-8226
UACC-257 = tested on: UACC-257
EKVX = tested on: EKVX
NCI-H23 = tested on: NCI-H23
SW-620 = tested on: SW-620
SF-295 = tested on: SF-295
MDA-MB-231 = tested on: MDA-MB-231
HOP-62 = tested on: HOP-62
U-251 = tested on: U-251
Malme-3M = tested on: Malme-3M
OVCAR-4 = tested on: OVCAR-4
NCI-H226 = tested on: NCI-H226
IGROV-1 = tested on: IGROV-1
TK-10 = tested on: TK-10
HOP-92 = tested on: HOP-92
LOX IMVI = tested on: LOX IMVI
SK-MEL-5 = tested on: SK-MEL-5
NCI-H522 = tested on: NCI-H522
SR = tested on: SR
HL-60 = tested on: HL-60

CCOc1ccc(N/C(=C(/C(Cl)=C(/Cl)NCCO)[N+](=O)[O-])n2nnc3ccccc32)cc1 was tested, and the GI50 (HT-29) was 29.9 µM (inactive), the GI50 (RXF 393) was 16.2 µM (inactive) and the GI50 (T47D) was 18.2 µM (inactive). The GI50 (SF-539) was 34.5 µM (inactive), the GI50 (SF-268) was 20.1 µM (inactive) and the GI50 (786-0) was 29.6 µM (inactive). For the same compound, the GI50 (PC-3) was 25.7 µM (inactive), the GI50 (KM12) was 24.8 µM (inactive) and the GI50 (HCT-15) was 20.5 µM. The GI50 (BT-549) was 18.5 µM (inactive), the GI50 (NCI-H460) was 48 µM (inactive) and the GI50 (SNB-19) was 51.1 µM (inactive). The GI50 (ACHN) was 19.5 µM (inactive), the GI50 (A498) was 31 µM (inactive) and the GI50 (OVCAR-5) was 35.6 µM (inactive). The GI50 (SK-MEL-28) was 18.7 µM (inactive), the GI50 (COLO 205) was 16.1 µM (inactive) and the GI50 (SK-OV-3) was 12.8 µM (inactive). The GI50 (A549) was 44 µM (inactive), the GI50 (HCT-116) was 37.7 µM (inactive) and the GI50 (MDA-MB-435) was 16.4 µM (inactive). The GI50 (SNB-75) was 60.1 µM (inactive), the GI50 (UO-31) was 19.5 µM (inactive) and the GI50 (DU-145) was 12.9 µM (inactive). The GI50 (MDA-N) was 28.9 µM (inactive), the GI50 (UACC-62) was 21.9 µM (inactive) and the GI50 (Hs-578T) was 15.2 µM (inactive). For the same compound, the GI50 (SK-MEL-2) was 35 µM (inactive), the GI50 (M14) was 30.4 µM (inactive) and the GI50 (OVCAR-3) was 18.1 µM (inactive). For the same compound, the GI50 (OVCAR-8) was 18.3 µM (inactive), the GI50 (NCI/ADR-RES) was 25.2 µM (inactive) and the GI50 (CAKI-1) was 14.4 µM (inactive). The GI50 (MCF7) was 19 µM (inactive), the GI50 (SN12C) was 19.8 µM (inactive) and the GI50 (K562) was 20.8 µM (inactive). For the same compound, the GI50 (MOLT-4) was 5.96 µM (inactive), the GI50 (HCC 2998) was 79.4 µM (inactive) and the GI50 (CCRF-CEM) was 5.57 µM (inactive). For the same compound, the GI50 (RPMI-8226) was 30.7 µM (inactive), the GI50 (UACC-257) was 41.3 µM (inactive) and the GI50 (EKVX) was 25.2 µM (inactive). The GI50 (NCI-H23) was 17.5 µM (inactive), the GI50 (SW-620) was 19.2 µM (inactive) and the GI50 (SF-295) was 28 µM (inactive). For the same compound, the GI50 (MDA-MB-231) was 20.6 µM (inactive), the GI50 (HOP-62) was 66.7 µM (inactive) and the GI50 (U-251) was 21.8 µM (inactive). The GI50 (Malme-3M) was 18.4 µM (inactive), the GI50 (OVCAR-4) was 16.7 µM (inactive) and the GI50 (NCI-H226) was > 100 µM (inactive).

With CN(C)CCCNC1=C(Cl)C(=O)c2c(O)ccc(O)c2C1=O the GI50 (HT-29) was 2.17 µM (inactive), the GI50 (T47D) was 2.09 µM (inactive) and the GI50 (SF-539) was 1.69 µM (inactive). For the same compound, the GI50 (SF-268) was 1 µM (active), the GI50 (786-0) was 1.36 µM (inactive) and the GI50 (PC-3) was 2.54 µM (inactive). For the same compound, the GI50 (KM12) was 2.99 µM (inactive), the GI50 (HCT-15) was 1.8 µM and the GI50 (BT-549) was 1.6 µM (inactive). The GI50 (IGROV-1) was 1.77 µM (inactive), the GI50 (NCI-H460) was 2.13 µM (inactive) and the GI50 (SNB-19) was 1.94 µM (inactive). For the same compound, the GI50 (ACHN) was 6.1 µM (inactive), the GI50 (A498) was > 10 µM (inactive) and the GI50 (OVCAR-5) was 1.59 µM (inactive). For the same compound, the GI50 (SK-MEL-28) was 1.52 µM (inactive), the GI50 (COLO 205) was 1.49 µM (inactive) and the GI50 (SK-OV-3) was > 10 µM (inactive). For the same compound, the GI50 (A549) was 1.66 µM (inactive), the GI50 (HCT-116) was 2.26 µM (inactive) and the GI50 (MDA-MB-435) was 1.6 µM (inactive). The GI50 (SNB-75) was 9.04 µM (inactive), the GI50 (TK-10) was 3.84 µM (inactive) and the GI50 (UO-31) was 6.04 µM (inactive). The GI50 (DU-145) was 1.82 µM (inactive), the GI50 (MDA-N) was 1.85 µM (inactive) and the GI50 (UACC-62) was 1.59 µM (inactive). For the same compound, the GI50 (Hs-578T) was 1.28 µM (inactive), the GI50 (M14) was 1.51 µM (inactive) and the GI50 (OVCAR-3) was 2.24 µM (inactive). For the same compound, the GI50 (OVCAR-8) was 3.27 µM (inactive), the GI50 (NCI/ADR-RES) was 2.44 µM (inactive) and the GI50 (CAKI-1) was > 10 µM (inactive). The GI50 (MCF7) was 1.55 µM (inactive), the GI50 (SN12C) was 1.81 µM (inactive) and the GI50 (K562) was 3.61 µM (inactive). The GI50 (MOLT-4) was 2.58 µM (inactive), the GI50 (HCC 2998) was 1.79 µM (inactive) and the GI50 (CCRF-CEM) was 2.47 µM (inactive). The GI50 (HOP-92) was 8.2 µM (inactive), the GI50 (LOX IMVI) was 1.67 µM (inactive) and the GI50 (SK-MEL-5) was 1.5 µM (inactive). For the same compound, the GI50 (UACC-257) was 1.95 µM (inactive), the GI50 (EKVX) was 3.37 µM (inactive) and the GI50 (NCI-H23) was 1.65 µM (inactive). The GI50 (SW-620) was 1.82 µM (inactive), the GI50 (SF-295) was 1.73 µM (inactive) and the GI50 (MDA-MB-231) was 2.9 µM (inactive). The GI50 (HOP-62) was 2.61 µM (inactive), the GI50 (U-251) was 1.74 µM (inactive) and the GI50 (Malme-3M) was 1.84 µM (inactive). For the same compound, the GI50 (OVCAR-4) was 1.49 µM (inactive) and the GI50 (NCI-H226) was > 10 µM (inactive).

For COc1cccc(C2c3cc4c(cc3OC(NNc3ccccc3)C2C)OCO4)c1O (stereo unspecified), the GI50 (HT-29) was 10.9 µM (inactive), the GI50 (NCI-H522) was 2.36 µM (inactive) and the GI50 (RXF 393) was 12.9 µM (inactive). For the same compound, the GI50 (T47D) was 6.15 µM (inactive), the GI50 (SF-539) was 3.18 µM (inactive) and the GI50 (SF-268) was 12.2 µM (inactive). The GI50 (786-0) was 2.88 µM (inactive), the GI50 (PC-3) was 4.76 µM (inactive) and the GI50 (KM12) was 2.38 µM (inactive). For the same compound, the GI50 (HCT-15) was 1.62 µM, the GI50 (BT-549) was 7.18 µM (inactive) and the GI50 (IGROV-1) was 5.47 µM (inactive). The GI50 (NCI-H460) was 2.81 µM (inactive), the GI50 (SNB-19) was 12.8 µM (inactive) and the GI50 (ACHN) was 1.5 µM (inactive). For the same compound, the GI50 (A498) was 14 µM (inactive), the GI50 (OVCAR-5) was 9.38 µM (inactive) and the GI50 (SK-MEL-28) was 8.77 µM (inactive). For the same compound, the GI50 (COLO 205) was 8.75 µM (inactive), the GI50 (SK-OV-3) was 21.9 µM (inactive) and the GI50 (A549) was 3.65 µM (inactive). For the same compound, the GI50 (HCT-116) was 4.4 µM (inactive), the GI50 (MDA-MB-435) was 2.59 µM (inactive) and the GI50 (SNB-75) was 6.61 µM (inactive). The GI50 (TK-10) was 3.62 µM (inactive), the GI50 (UO-31) was 3.32 µM (inactive) and the GI50 (SR) was 1.87 µM (inactive). For the same compound, the GI50 (DU-145) was 5.13 µM (inactive), the GI50 (MDA-N) was 2.14 µM (inactive) and the GI50 (UACC-62) was 2.43 µM (inactive). For the same compound, the GI50 (Hs-578T) was 11.9 µM (inactive), the GI50 (SK-MEL-2) was 8.55 µM (inactive) and the GI50 (M14) was 2.92 µM (inactive). For the same compound, the GI50 (HL-60) was 4.48 µM (inactive), the GI50 (OVCAR-3) was 2.71 µM (inactive) and the GI50 (OVCAR-8) was 2.47 µM (inactive). For the same compound, the GI50 (CAKI-1) was 3.1 µM (inactive), the GI50 (MCF7) was 4.67 µM (inactive) and the GI50 (SN12C) was 11.2 µM (inactive). For the same compound, the GI50 (K562) was 2.24 µM (inactive), the GI50 (MOLT-4) was 4.17 µM (inactive) and the GI50 (HCC 2998) was 2.08 µM (inactive). For the same compound, the GI50 (CCRF-CEM) was 4.68 µM (inactive), the GI50 (HOP-92) was 12.6 µM (inactive) and the GI50 (LOX IMVI) was 12.7 µM (inactive). The GI50 (RPMI-8226) was 4.18 µM (inactive), the GI50 (SK-MEL-5) was 6.21 µM (inactive) and the GI50 (UACC-257) was 4.57 µM (inactive). The GI50 (EKVX) was 4.88 µM (inactive), the GI50 (NCI-H23) was 10.1 µM (inactive) and the GI50 (SW-620) was 11 µM (inactive). For the same compound, the GI50 (SF-295) was 2.06 µM (inactive), the GI50 (MDA-MB-231) was 12.6 µM (inactive) and the GI50 (HOP-62) was 2.51 µM (inactive). For the same compound, the GI50 (U-251) was 5.61 µM (inactive), the GI50 (Malme-3M) was 4.66 µM (inactive) and the GI50 (NCI-H226) was 14.5 µM (inactive).
